Measurements taken from ChEMBL document CHEMBL4033665, “Synthesis and applications of benzohydroxamic acid-based histone deacetylase inhibitors” (Eur J Med Chem, 2017).
Blank lines part the entries; values can stand above or below the molecule they belong to.

Experiments:
[1] = biological target: T1, Protein deacetylase HDAC6 (Homo sapiens, UniProt Q9UBN7); assay: Inhibition of recombinant human HDAC6 using Boc-Lys(acetyl)-AMC as substrate after 1 hr by fluorescence assay
T1 sequence (Q9UBN7 whole entry): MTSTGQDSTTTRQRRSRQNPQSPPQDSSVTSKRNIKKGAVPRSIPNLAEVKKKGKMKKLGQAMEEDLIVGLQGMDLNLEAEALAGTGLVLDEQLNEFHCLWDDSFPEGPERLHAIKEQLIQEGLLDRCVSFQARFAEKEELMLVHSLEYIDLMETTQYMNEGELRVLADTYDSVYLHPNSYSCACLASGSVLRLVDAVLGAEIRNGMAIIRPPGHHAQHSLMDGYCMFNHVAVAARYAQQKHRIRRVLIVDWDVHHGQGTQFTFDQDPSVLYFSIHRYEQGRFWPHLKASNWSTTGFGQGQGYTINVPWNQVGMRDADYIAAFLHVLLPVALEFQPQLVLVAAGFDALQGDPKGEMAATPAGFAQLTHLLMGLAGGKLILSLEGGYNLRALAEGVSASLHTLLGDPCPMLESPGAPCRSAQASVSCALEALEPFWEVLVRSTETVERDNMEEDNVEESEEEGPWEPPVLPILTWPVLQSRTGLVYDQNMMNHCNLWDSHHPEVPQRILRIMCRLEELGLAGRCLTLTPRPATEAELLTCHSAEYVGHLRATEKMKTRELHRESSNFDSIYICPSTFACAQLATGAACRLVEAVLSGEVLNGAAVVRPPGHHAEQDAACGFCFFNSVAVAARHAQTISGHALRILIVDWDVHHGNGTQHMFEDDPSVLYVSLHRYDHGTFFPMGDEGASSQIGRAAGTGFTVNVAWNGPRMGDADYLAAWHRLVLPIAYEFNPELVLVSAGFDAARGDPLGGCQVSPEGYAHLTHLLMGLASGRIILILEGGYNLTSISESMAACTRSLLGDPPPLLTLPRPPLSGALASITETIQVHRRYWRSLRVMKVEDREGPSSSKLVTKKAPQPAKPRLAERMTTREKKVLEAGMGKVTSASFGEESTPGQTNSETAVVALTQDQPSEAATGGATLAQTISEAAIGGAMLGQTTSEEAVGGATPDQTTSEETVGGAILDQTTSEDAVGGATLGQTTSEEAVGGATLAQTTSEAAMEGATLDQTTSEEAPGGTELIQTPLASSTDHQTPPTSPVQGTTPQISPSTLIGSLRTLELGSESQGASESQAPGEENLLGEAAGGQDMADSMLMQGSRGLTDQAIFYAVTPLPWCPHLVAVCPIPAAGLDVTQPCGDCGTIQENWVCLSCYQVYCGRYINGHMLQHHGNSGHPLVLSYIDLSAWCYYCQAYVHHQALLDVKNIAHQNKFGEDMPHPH

Histone deacetylase 1 [2] = biological target: T2, Histone deacetylase 1 (Homo sapiens, UniProt Q13547); assay: Inhibition of HDAC1 (unknown origin)
Histone deacetylase 3 [3] = biological target: T3, Histone deacetylase 3 (Homo sapiens, UniProt O15379); assay: Inhibition of HDAC3 (unknown origin)
[4] = Inhibition of HDAC activity in human HeLa nuclear extract
Histone deacetylase 1 [5] = biological target: T2, Histone deacetylase 1; assay: Inhibition of HDAC1 (unknown origin) by fluorescence assay
Histone deacetylase 2 [6] = biological target: T4, Histone deacetylase 2 (Homo sapiens, UniProt Q92769); assay: Inhibition of HDAC2 (unknown origin) by fluorescence assay
Histone deacetylase 3 [7] = biological target: T3, Histone deacetylase 3; assay: Inhibition of HDAC3 (unknown origin) by fluorescence assay
Histone deacetylase 4 [8] = biological target: T5, Histone deacetylase 4 (Homo sapiens, UniProt P56524); assay: Inhibition of HDAC4 (unknown origin) by fluorescence assay
[9] = biological target: T1, Protein deacetylase HDAC6; assay: Inhibition of HDAC6 (unknown origin) by fluorescence assay
Histone deacetylase 8 [10] = biological target: T6, Histone deacetylase 8 (Homo sapiens, UniProt Q9BY41); assay: Inhibition of HDAC8 (unknown origin) by fluorescence assay
T6 sequence (Q9BY41 whole entry): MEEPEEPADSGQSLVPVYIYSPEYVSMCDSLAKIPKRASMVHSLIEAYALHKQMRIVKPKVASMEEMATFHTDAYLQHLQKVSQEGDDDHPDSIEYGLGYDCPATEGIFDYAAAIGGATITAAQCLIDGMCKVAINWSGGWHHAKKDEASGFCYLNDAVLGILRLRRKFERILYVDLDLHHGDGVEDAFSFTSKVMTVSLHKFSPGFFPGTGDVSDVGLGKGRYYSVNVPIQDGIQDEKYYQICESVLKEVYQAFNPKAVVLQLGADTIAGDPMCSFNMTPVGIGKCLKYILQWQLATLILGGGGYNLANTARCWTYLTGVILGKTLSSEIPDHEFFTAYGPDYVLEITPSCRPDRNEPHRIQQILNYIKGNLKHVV

Histone deacetylase 2 [11] = biological target: T4, Histone deacetylase 2; assay: Inhibition of HDAC2 (unknown origin)
Histone deacetylase 4 [12] = biological target: T5, Histone deacetylase 4; assay: Inhibition of HDAC4 (unknown origin)
Histone deacetylase 5 = Histone deacetylase 5 (Homo sapiens, UniProt Q9UQL6); assay: Inhibition of HDAC5 (unknown origin)
[13] = biological target: T1, Protein deacetylase HDAC6; assay: Inhibition of HDAC6 (unknown origin)
Histone deacetylase 8 [14] = biological target: T6, Histone deacetylase 8; assay: Inhibition of HDAC8 (unknown origin)
Histone deacetylase 9 = Histone deacetylase 9 (Homo sapiens, UniProt Q9UKV0); assay: Inhibition of HDAC9 (unknown origin)
[15] = biological target: T7, Polyamine deacetylase HDAC10 (Homo sapiens, UniProt Q969S8); assay: Inhibition of HDAC10 (unknown origin)
T7 sequence (Q969S8 whole entry): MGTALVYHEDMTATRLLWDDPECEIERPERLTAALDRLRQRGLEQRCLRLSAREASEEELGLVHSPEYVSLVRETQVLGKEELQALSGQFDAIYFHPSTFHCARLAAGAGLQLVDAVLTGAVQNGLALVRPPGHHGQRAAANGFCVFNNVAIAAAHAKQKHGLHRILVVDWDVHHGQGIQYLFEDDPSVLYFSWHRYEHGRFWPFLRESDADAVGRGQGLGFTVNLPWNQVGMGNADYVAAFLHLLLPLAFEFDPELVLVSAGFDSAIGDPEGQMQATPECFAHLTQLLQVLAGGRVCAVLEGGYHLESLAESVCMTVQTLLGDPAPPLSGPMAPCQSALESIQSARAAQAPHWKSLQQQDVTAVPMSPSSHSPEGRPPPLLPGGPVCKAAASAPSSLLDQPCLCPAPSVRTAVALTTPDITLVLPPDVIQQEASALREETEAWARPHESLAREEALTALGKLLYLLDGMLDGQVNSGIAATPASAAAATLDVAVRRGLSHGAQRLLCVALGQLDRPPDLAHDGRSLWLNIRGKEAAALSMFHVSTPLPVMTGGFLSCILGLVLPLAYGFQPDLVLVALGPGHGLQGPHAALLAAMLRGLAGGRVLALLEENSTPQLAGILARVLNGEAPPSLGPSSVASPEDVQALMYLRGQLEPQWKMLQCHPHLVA

Histone deacetylase 11 = biological target: T8, Histone deacetylase 11 (Homo sapiens, UniProt Q96DB2); assay: Inhibition of HDAC11 (unknown origin)
T8 sequence (Q96DB2 whole entry): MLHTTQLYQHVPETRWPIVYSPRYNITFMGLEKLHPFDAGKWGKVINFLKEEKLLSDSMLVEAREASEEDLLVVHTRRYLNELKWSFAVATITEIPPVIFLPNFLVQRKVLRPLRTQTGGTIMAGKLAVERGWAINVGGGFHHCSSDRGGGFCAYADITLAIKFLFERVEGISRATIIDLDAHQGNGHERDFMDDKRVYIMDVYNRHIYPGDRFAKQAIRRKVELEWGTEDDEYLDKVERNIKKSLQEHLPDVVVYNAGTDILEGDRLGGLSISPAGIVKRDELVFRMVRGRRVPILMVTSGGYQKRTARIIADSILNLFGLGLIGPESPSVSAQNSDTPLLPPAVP

Histone deacetylase 1 [16] = biological target: T2, Histone deacetylase 1; assay: Inhibition of human HDAC1 using MAL as substrate at 100 uM after 90 mins by fluorescence assay
[17] = biological target: T9, Protein deacetylase HDAC6 (Homo sapiens) (UniProt Q9UBN7); assay: Inhibition of human HDAC6 at 100 uM after 90 mins by fluorescence assay
T9 sequence (whole entry): T1 sequence (Q9UBN7 whole entry)

Histone deacetylase 8 [18] = biological target: T6, Histone deacetylase 8; assay: Inhibition of human HDAC8 using ZMTFAL as substrate after 90 mins by fluorescence assay
Histone deacetylase 1 [19] = biological target: T2, Histone deacetylase 1; assay: Inhibition of C-terminal His-tag and C-terminal FLAG-tagged full length human HDAC1 expressed in baculovirus expression system using AMC-labeled RHKKAc as substrate by fluorescence method
[20] = biological target: T1, Protein deacetylase HDAC6; assay: Inhibition of recombinant N-terminal GST-tagged full length human HDAC6 expressed in baculovirus expression system in Sf9 insect cells using AMC-labeled RHKKAc as substrate by fluorescence method
[21] = Inhibition of HDAC activity in human DU-145 cell nuclear extract

T2 sequence (Q13547 whole entry): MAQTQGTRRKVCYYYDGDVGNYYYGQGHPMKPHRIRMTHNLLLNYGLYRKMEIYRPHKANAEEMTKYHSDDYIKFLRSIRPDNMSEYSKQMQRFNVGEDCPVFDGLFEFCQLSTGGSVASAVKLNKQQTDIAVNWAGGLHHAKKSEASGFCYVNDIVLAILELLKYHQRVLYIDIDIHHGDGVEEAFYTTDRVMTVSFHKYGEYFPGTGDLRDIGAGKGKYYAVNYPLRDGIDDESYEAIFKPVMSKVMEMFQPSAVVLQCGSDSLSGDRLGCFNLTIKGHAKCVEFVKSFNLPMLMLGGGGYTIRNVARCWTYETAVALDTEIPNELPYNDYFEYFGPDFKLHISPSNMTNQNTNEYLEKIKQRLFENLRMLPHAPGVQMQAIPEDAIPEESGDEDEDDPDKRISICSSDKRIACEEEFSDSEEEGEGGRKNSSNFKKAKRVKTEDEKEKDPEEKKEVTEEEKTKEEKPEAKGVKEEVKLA
T4 sequence (Q92769 whole entry): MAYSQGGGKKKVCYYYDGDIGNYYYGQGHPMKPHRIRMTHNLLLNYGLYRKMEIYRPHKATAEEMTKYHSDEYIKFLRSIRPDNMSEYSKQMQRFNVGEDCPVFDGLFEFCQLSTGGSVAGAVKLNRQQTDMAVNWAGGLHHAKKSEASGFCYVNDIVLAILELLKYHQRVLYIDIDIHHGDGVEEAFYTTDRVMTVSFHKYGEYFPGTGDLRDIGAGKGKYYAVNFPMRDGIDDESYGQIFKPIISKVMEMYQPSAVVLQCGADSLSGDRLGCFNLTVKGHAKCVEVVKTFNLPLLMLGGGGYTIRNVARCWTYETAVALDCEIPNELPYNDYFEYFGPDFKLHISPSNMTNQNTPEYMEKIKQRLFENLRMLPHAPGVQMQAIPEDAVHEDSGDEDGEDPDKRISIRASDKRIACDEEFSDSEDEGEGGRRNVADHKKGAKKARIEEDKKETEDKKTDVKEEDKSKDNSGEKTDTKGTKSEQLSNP
T3 sequence (O15379 whole entry): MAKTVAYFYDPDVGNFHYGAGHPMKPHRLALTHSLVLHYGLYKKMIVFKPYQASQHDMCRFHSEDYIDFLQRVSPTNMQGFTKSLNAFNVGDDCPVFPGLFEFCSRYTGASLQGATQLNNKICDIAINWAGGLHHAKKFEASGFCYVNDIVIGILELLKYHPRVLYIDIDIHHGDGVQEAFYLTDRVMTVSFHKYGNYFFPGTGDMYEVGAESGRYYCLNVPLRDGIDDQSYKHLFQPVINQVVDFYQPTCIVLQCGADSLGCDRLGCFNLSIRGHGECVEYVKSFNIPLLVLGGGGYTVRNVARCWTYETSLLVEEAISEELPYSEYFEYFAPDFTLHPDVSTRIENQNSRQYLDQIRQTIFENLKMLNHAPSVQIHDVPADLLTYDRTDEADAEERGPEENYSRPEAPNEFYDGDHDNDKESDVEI
T5 sequence (P56524 whole entry): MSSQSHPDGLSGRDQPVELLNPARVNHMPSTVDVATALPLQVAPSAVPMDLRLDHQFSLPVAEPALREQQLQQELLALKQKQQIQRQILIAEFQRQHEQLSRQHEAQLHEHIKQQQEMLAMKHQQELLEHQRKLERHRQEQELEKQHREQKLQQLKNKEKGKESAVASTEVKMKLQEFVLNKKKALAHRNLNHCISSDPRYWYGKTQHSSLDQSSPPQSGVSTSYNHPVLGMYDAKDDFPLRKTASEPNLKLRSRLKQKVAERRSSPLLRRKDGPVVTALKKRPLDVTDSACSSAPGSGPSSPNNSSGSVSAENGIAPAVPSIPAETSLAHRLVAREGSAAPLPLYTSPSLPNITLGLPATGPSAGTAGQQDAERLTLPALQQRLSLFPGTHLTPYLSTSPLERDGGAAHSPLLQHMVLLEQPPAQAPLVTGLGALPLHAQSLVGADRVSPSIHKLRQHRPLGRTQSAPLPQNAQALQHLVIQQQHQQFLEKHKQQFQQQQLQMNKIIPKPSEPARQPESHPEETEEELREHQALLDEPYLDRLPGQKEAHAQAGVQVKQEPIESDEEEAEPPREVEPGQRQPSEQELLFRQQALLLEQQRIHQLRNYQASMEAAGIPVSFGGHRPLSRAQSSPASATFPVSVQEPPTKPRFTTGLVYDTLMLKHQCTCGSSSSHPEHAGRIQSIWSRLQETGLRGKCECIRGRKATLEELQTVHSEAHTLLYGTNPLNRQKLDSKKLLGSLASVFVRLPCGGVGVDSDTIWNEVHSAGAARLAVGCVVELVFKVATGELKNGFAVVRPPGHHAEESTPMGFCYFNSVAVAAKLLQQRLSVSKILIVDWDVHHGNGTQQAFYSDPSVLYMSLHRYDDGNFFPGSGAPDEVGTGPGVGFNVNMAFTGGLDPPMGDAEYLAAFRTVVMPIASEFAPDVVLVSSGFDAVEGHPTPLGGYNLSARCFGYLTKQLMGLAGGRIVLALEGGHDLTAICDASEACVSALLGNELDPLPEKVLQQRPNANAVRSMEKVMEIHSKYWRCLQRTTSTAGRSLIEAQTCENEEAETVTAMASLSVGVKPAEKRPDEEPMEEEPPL
Sequence of Histone deacetylase 5 (Q9UQL6 whole entry): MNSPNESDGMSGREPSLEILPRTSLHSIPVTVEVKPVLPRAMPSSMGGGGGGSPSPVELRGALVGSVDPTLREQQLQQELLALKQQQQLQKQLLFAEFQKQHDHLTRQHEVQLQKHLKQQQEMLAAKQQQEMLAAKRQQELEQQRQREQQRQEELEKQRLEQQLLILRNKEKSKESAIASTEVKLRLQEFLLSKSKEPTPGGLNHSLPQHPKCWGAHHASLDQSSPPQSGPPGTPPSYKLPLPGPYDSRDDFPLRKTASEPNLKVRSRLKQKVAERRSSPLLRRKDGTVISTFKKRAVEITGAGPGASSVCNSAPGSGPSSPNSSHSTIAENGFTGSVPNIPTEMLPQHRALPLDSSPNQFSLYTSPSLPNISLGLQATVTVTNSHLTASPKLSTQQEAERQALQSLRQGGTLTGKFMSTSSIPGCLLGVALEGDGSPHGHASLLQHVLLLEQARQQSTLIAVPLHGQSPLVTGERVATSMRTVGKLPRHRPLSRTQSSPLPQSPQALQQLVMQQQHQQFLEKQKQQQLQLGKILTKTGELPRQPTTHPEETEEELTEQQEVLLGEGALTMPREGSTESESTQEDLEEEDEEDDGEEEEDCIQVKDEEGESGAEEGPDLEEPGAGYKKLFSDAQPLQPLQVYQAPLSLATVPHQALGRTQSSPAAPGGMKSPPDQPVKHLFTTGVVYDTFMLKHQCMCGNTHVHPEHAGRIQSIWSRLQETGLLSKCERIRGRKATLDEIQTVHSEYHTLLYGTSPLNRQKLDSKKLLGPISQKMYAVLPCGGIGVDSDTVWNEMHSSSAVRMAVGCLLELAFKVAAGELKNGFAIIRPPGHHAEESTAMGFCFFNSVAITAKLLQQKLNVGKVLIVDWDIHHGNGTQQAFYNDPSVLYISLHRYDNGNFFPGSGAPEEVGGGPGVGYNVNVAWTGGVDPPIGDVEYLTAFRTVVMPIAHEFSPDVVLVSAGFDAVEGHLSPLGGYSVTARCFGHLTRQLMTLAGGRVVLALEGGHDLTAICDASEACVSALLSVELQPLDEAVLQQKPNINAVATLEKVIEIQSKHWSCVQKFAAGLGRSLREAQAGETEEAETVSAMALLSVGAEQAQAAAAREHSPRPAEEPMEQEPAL
Sequence of Histone deacetylase 9 (Q9UKV0 whole entry): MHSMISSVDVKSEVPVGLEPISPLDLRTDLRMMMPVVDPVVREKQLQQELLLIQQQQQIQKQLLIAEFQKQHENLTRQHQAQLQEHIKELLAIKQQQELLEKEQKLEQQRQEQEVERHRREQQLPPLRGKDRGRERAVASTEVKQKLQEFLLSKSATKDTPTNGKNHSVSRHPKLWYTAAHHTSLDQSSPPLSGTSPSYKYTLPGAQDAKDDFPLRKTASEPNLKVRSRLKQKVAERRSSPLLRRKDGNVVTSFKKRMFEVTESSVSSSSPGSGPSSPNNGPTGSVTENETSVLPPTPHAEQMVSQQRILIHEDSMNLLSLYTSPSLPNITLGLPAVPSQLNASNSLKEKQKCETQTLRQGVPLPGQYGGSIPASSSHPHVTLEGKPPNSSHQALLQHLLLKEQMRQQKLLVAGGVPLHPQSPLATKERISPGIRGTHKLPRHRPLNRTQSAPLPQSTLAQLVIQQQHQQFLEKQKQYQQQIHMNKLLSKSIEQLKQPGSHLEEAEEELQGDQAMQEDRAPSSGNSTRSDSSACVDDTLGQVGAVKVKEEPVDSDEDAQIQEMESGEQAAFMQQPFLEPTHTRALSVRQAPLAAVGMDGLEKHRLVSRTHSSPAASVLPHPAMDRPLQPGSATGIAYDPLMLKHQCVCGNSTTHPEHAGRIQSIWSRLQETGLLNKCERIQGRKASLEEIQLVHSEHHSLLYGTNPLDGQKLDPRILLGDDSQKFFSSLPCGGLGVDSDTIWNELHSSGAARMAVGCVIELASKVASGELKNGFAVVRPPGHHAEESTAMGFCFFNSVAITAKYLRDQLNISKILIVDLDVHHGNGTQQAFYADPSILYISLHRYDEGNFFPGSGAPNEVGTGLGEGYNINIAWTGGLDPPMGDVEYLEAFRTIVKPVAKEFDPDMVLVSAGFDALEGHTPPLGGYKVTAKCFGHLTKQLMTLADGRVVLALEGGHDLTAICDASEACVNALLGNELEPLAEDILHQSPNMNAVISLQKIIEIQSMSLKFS

IC50 [1]: 6 nM
SMILES: O=C(Cc1ccc(C(=O)NO)cc1)NC1=CC(=O)c2ccccc2C1=O

IC50 (Histone deacetylase 1 [2]): 12000 nM
IC50 (Histone deacetylase 2 [11]): > 30000 nM
IC50 (Histone deacetylase 4 [12]): 600 nM
IC50 (Histone deacetylase 5): 400 nM
IC50 [13]: 8 nM
IC50 (Histone deacetylase 8 [14]): 1900 nM
IC50 (Histone deacetylase 9): 200 nM
IC50 [15]: 13000 nM
IC50 (Histone deacetylase 11): 17000 nM
SMILES: O=C(NO)c1ccc(Cn2c3c(c4ccccc42)S(=O)(=O)CC3)cc1

inhibition (Histone deacetylase 1 [16]): < 10%
inhibition [17]: 41%
IC50 (Histone deacetylase 8 [18]): 15700 nM
SMILES: O=C1Nc2ccccc2/C1=N/NC(=S)Nc1ccc(C(=O)NO)cc1

IC50 [21]: 44 nM
SMILES: O=C(CCCc1ccccc1)Nc1ccc(C(=O)NO)cc1

The next lines start with the molecule.

SMILES: O=C(/C=C/c1cccc(C(=O)NO)c1)NO
IC50 (Histone deacetylase 1 [2]): 10 nM
IC50 (Histone deacetylase 3 [3]): 70 nM

SMILES: O=C(NO)c1cccc(-c2csc(CSc3ccccc3)n2)c1
IC50 [4]: > 100000 nM
IC50 (Histone deacetylase 1 [5]): > 100000 nM
IC50 (Histone deacetylase 2 [6]): > 100000 nM
IC50 (Histone deacetylase 3 [7]): 12000 nM
IC50 (Histone deacetylase 4 [8]): > 100000 nM
IC50 [9]: 14000 nM
IC50 (Histone deacetylase 8 [10]): 150 nM

SMILES: Cc1noc(C)c1-c1ccnc(N(Cc2ccc(C(=O)NO)cc2)c2cnccn2)c1
IC50 (Histone deacetylase 1 [19]): ≥ 10000 nM
IC50 [20]: ≤ 500 nM
